Test results from patent publication US20230031406A1, “COMPOUNDS AND COMPOSITIONS FOR TREATING CONDITIONS ASSOCIATED WITH NLRP ACTIVITY” (Novartis AG, priority 2018, published 2023).
pIC50: −log10 of the molar value. Read-outs that look alike come from different tables or passages of the source. Blank lines part the entries; values can stand above or below the molecule they belong to.

Tested on: PMA-differentiated THP-1 cells
Assay: IL-1β production in PMA-differentiated THP-1 cells stimulated with gramicidin (hTHP-1 assay containing 2% fetal bovine serum; Procedures 1 and 2)
Assay type: cell-based, human
Details: 2% fetal bovine serum
How it was run: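 Secreted IL-1β, read by HTRF, after gramicidin challenge (5 μM, 2 h) of THP-1 cells differentiated with PMA (20 ng/ml, 16-18 h) and plated at 50,000 cells/well in 2% FBS medium. Compounds, 0.0017-100 μM final with 0.37% DMSO, were added 1 h before stimulation.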

[1] = Table B2, class symbols, read-out: hTHP-1 IC50
[2] = Homo sapiens, THP-1, Table B2, class symbols, read-out: hTHP-1 IC50
[3] = Homo sapiens, THP-1, Table B2, numeric bounds, read-out: hTHP-1 IC50
[4] = Homo sapiens, THP-1, Table B3, hTHP-1 assay, class symbols, read-out: IC50
[5] = Homo sapiens, THP-1, Table B1, numeric bounds, read-out: Average IC50 of compounds in hTHP-1 assay: hTHP-1 IC50
[6] = Table B3, hTHP-1 assay, class symbols, read-out: IC50
[7] = Homo sapiens, THP-1, Table B1, class symbols, read-out: Average IC50 of compounds in hTHP-1 assay: hTHP-1 IC50
[8] = Table B1, class symbols, read-out: Average IC50 of compounds in hTHP-1 assay: hTHP-1 IC50

- pIC50 [1]: 7.40 to 8.10
SMILES: CC1(C)CCc2c1nc1c(c2NC(=O)N=S(N)(=O)c2sc(C(C)(O)CO)cc2F)CCC1 (single isomer, unassigned) [Compound 699b, (S, R) and (R, R) or (R, S) and (S, S)-5-(1,2-Dihydroxypropan-2-yl)-N′-((3,3-dimethyl-1,2,3,5,6,7-hexahydrodicyclopenta [b,e]pyridin-8-yl)carbamoyl)-3-fluorotliophene-2-sulfoni midamide]

- pIC50 [2]: 6.00 to 6.70
SMILES: COC(C)(C)c1nc(CO)c(S(N)(=O)=NC(=O)Nc2c3c(nc4c2CCC4(C)C)CCC3)s1 (single isomer, unassigned) [Compound 648a, (R) or (S)-N′-((3,3-dimethyl-1,2,3,5,6,7-hexahydrodicyclopenta [b,e]pyridin-8-yl)carbamoyl)-4-(hydroxymethyl)-2-(2-methoxypropan-2-yl)thiazole-5-sulfonimidamide]

- pIC50 [3]: < 4.52
SMILES: CC(C)(O)c1cc(F)c([S@@](N)(=O)=NC(=O)Nc2cc(CC(F)(F)F)nc3c2CCC3)s1 [Compound 602a]

- pIC50 [4]: 5.30 to 6.00
SMILES: Cc1c(C2(F)CC2)nc2c(c1NC(=O)N=S(N)(=O)c1cc(C(C)(C)O)cs1)CCC2 (single isomer, unassigned) [Example 683, (R) or (S)-N′-((2-(1-fluorocyclopropyl)-3-methyl-6,7-dihydro-5H-cyclopenta[b]pyridin-4-yl)carbamoyl)-4-(2-hydroxypropan-2-yl)thiophene-2-sulfonimidamide]

- pIC50 [5]: < 4.85
SMILES: Cc1nc(C)c(C)c(NC(=O)N=S(N)(=O)c2cnc(C(C)(C)O)s2)c1C (centres unmarked) [Compound 133, 2-(2-hydroxypropan-2-yl)-N′-((2,3,5,6,-tetramethylpyridin-4-yl)carbamoyl)thiazole-5-sulfonimidamide]

- pIC50 [2]: 4.52 to 5.30
SMILES: CC(C)c1nc2c(cc1NC(=O)N=[S@@](N)(=O)c1cnc(C(C)(C)O)s1)CCC2 [Compound 601b]

- pIC50 [3]: < 4.52
SMILES: Cc1cc(C(C)(C)O)sc1S(N)(=O)=NC(=O)Nc1c2c(nc3c1CCC3)CCC2 (single isomer, unassigned) [Compound 695a, (S) or (R)-N′-((1,2,3,5,6,7-hexahydrodicyclopenta [b,e]pyridin-8-yl)carbamoyl)-5-(2-hydroxypropan-2-yl)-3-methylthiophene-2-sulfonimidamide]

- pIC50 [2]: 5.30 to 6.00
SMILES: Cc1c(C2CC2)nc(C2CC2)c(C)c1NC(=O)N=S(N)(=O)c1cc(C(C)(C)O)cs1 (single isomer, unassigned) [Compound 612b, (R) or (S)-N′-((2,6-dicyclopropyl-3,5-dimethylpyridin-4-yl)carbamoyl)-4-(2-hydroxypropan-2-yl)thiophene-2-sulfonimidamide]

- pIC50 [3]: < 4.52
SMILES: Cc1c(C(F)(F)F)nc2c(c1NC(=O)N=S(N)(=O)c1cnn(C(F)F)c1)CCC2 (single isomer, unassigned) [Compound 617b, (S) or (R)-1-(Difluoromethyl)-N′-((3-methyl-2-(trifluoromethyl)-6,7-dihydro-5H-cyclopenta[b]pyridin-4-yl)carbamoyl)-1H-pyrazole-4-sulfonimidamide]

- pIC50 [6]: 7.40 to 8.10
SMILES: CCn1cc(F)c(S(N)(=O)=NC(=O)Nc2c3c(nc(C4CC4)c2C2CC2)CCC3)n1 (single isomer, unassigned) [Example 707, (R) or (S)-N′-((2,3-dicyclopropyl-6,7-dihydro-5H-cyclopenta[b]pyridin-4-yl)carbamoyl)-1-ethyl-4-fluoro-1H-pyrazole-3-sulfonimidamide]

- pIC50 [2]: 5.30 to 6.00
SMILES: CC(C)(O)c1cc(Br)c(S(N)(=O)=NC(=O)Nc2c3c(nc4c2CCC4)CCC3)s1 (centres unmarked) [Compound 690, 3-Bromo-N′-((1,2,3,5,6,7-hexahydrodicyclopenta[b,e]pyridin-8-yl)carbamoyl)-5-(2-hydroxypropan-2-yl)thiophene-2-sulfonimidamide]

- pIC50 (Homo sapiens, THP-1, Table B4, class symbols, read-out: hTHP-1 IC50): 5.30 to 6.00
SMILES: CN(C)C(=O)c1ncc(S(N)(=O)=NC(=O)Nc2c3c(nc4c2CCC4(C)C)CCC3)s1 (centres unmarked) [Example 751, 5-(N′-((3,3-dimethyl-1,2,3,5,6,7-hexahydrodicyclopenta[b,e]pyridin-8-yl)carbamoyl)sulfamidimidoyl)-N,N-dimethyl-thiazole-2-carboxamide]

- pIC50 [1]: 5.30 to 6.00
SMILES: CC(C)(O)c1sc(S(N)(=O)=NC(=O)Nc2c3c(nc4c2CCC4(C)C)CCC3)cc1F (single isomer, unassigned) [Compound 613b, -N′-((3,3-dimethyl-1,2,3,5,6,7-hexahydrodicyclopenta [b,e]pyridin-8-yl)carbamoyl)-4-fluoro-5-(2-hydroxypropan-2-yl)thiophene-2-sulfonimidamide]

- pIC50 [2]: 4.52 to 5.30
SMILES: CC(C)c1cc(NC(=O)N=S(N)(=O)c2cc(C(C)(C)O)cs2)c2c(n1)CCC2 (single isomer, unassigned) [Compound 182b, (R) or (S)-4-(2-Hydroxypropan-2-yl)-N′-((2-isopropyl-6,7-dihydro-5H-cyclopenta[b]pyridin-4-yl)carbamoyl) thiophene-2-sulfonimidamide]

- pIC50 [7]: 4.52 to 5.30
SMILES: CC1(C)Cc2nc3c(c(NC(=O)N=S(N)(=O)c4cnc(C(C)(C)O)s4)c2C1)CCC3 (centres unmarked) [Compound 147, N′-((2,2-dimethyl-1,2,3,5,6,7-hexahydrodicyclopenta[b,e]pyridin-8-yl)carbamoyl)-2-(2-hydroxypropan-2-yl)thiazole-5-sulfonimidamide]

- pIC50 [2]: 5.30 to 6.00
SMILES: CC(C)(O)c1cc(Cl)c(S(N)(=O)=NC(=O)Nc2c3c(nc4c2CCC4)CCC3)s1 (centres unmarked) [Compound 691, 3-Chloro-N′-((1,2,3,5,6,7-hexahydrodicyclopenta[b, e]pyridin-8-yl)carbamoyl)-5-(2-hydroxypropan-2-yl)thiophene-2-sulfonimidamide]

- pIC50 [8]: 4.52 to 5.30
SMILES: CC1CCc2c1nc1c(c2NC(=O)N=S(N)(=O)c2ncc(C(C)(C)O)s2)CCC1 (single isomer, unassigned) [Compound 140b, (S,R/S) or (R,R/S)-5-(2-hydroxypropan-2-yl)-N′-((3-methyl-1,2,3,5,6,7-hexa-hydrodicyclo-penta[b,e]pyridin-8-yl)carbamoyl)thiazole-2-sulfonimidamide]

- pIC50 [1]: 6.00 to 6.70
SMILES: Cc1c(C(F)(F)F)nc2c(c1NC(=O)N=S(N)(=O)c1cnc(C(C)(C)O)s1)CCC2C (single isomer, unassigned) [Compound 608c]

- pIC50 [6]: 5.30 to 6.00
SMILES: Cc1nc2c(c(NC(=O)N=S(N)(=O)c3nn(C(F)F)cc3F)c1-c1ccccc1)CCC2 (single isomer, unassigned) [Example 728, (S) or (R)-1-(difluoromethyl)-4-fluoro-N′-((2-methyl-3-phenyl-6,7-dihydro-5H-cyclopenta[b]pyridin-4-yl)carbamoyl)-1H-pyrazole-3-sulfonimidamide]

- pIC50 [3]: < 4.52
SMILES: Cc1c(CC2CC2)nc2c(c1NC(=O)N=S(N)(=O)c1cc(C(C)(C)O)cs1)CCC2 (single isomer, unassigned) [Compound 665a, (S) or (R)-N′-((2-(cyclopropylmethyl)-3-methyl-6,7-dihydro-5H-cyclopenta[b]pyridin-4-yl)carbamoyl)-4-(2-hydroxypropan-2-yl)thiophene-2-sulfonimidamide]

- pIC50 [8]: 6.00 to 6.70
SMILES: CC1CCc2c1nc1c(c2NC(=O)N=S(N)(=O)c2sc(C(C)(C)O)nc2CO)CCC1 (centres unmarked) [Compound 168, 4-(hydroxymethyl)-2-(2-hydroxypropan-2-yl)-N′-((3-methyl-1,2,3,5,6,7-hexahydrodicyclopenta[b,e]pyridin-8-yl)carbamoyl)thiazole-5-sulfonimidamide]

- pIC50 [4]: 6.00 to 6.70
SMILES: CC1(C)CCc2c1nc1c(c2NC(=O)N=S(N)(=O)c2cc([C@](C)(O)CO)cs2)CCC1 (stereo partly drawn) [Example 623, 4-((S)-1,2-dihydroxypropan-2-yl)-N′-((3,3-dimethyl-1,2,3,5,6,7-hexahydrodicyclopenta[b,e]pyridin-8-yl)carbamoyl)thiophene-2-sulfonimidamide]

- pIC50 (Homo sapiens, THP-1, Table B3, hTHP-1 assay, numeric values, read-out: IC50): < 4.52
SMILES: CN(C)Cc1nc(C(C)(C)O)sc1S(N)(=O)=NC(=O)Nc1c2c(nc3c1CCC3(C)C)CCC2 (centres unmarked) [compound 592, N′-((3,3-dimethyl-1,2,3,5,6,7-hexahydrodicyclopenta[b,e]pyridin-8-yl)carbamoyl)-4-((dimethylamino)methyl)-2-(2-hydroxypropan-2-yl)thiazole-5-sulfonimidamide]

- pIC50 [5]: < 4.52
SMILES: NS(=O)(=NC(=O)Nc1c2c(nc3c1CCC31CC1)CCC2)c1ccn(C(F)F)n1 (single isomer, unassigned) [Compound 180b, (S) or (R)-1-(difluoromethyl)-N′-((1′,5′,6′,7′-tetrahydro-2′H-spiro[cyclopropane-1,3′-dicyclopenta[b,e]pryidin]-8′-yl)carbamoyl)-1H-pyrazole-3-sulfonimidamide]

- pIC50 [8]: 4.52 to 5.30
SMILES: Cc1c(C2CC2)nc2c(c1NC(=O)N=S(N)(=O)c1cc(C(C)(C)O)cs1)CCC2 (single isomer, unassigned) [Compound 175a, (R) or (S)-N′-((2-cyclopropyl-3-methyl-6,7-dihydro-5H-cyclopenta[b]pyridin-4-yl)carbamoyl)-4-(2-hydroxypropan-2-yl)thiophene-2-sulfonimidamide]

- pIC50 [7]: 6.00 to 6.70
SMILES: Cc1c(C2CC2)nc2c(c1NC(=O)N=S(N)(=O)c1cnc(C(C)(C)O)s1)CCC2 (centres unmarked) [Compound 124, N′-((2-cyclopropyl-3-methyl-6,7-dihydro-5H-cyclopenta[b]pyridin-4-yl)carbamoyl)-2-(2-hydroxypropan-2-yl)thiazole-5-sulfonimidamide]
